Reference: patent publication US20260083687A1, “COMPOUNDS FOR REDUCING LACTATION AND IMPROVING HEALTH” (AHV International B.V., priority 2022, published 2026)
Several values for one entry are separate records, joined by “and”; a condition that tells them apart may be missing. Identical values can stand only once.

Assays:
cows = test: Effect of 40 ml and 80 ml oral DPD capsule vs placebo on the milk yield of cows (Example 1); format: in vivo, cow; set-up: average milk drop (Difference: observed minus expected milk yield) / average milk drop (difference): unit not given here; conditions: for Milk production: 40 ml DPD oral capsule on day 13, individual cows
Method: 15 cows from 3 different farms were used in study 1 and 30 cows from 4 different farms were used in study 2. […] The cows are milked twice a day. The cows were housed in free stables. […] The farmers were not informed which cows were treated.
The placebo group existed of 8 cows, whereas the size of the treated group was 7 cows.
For study 2, the gelatin capsule contained 80 ml of the DPD and the gelatine capsule for the placebo group contained tap water. Nine cows were administered a single dose of DPD 7 to 14 days before the start of their dry-off period and nine cows were administered a single dose of the placebo capsule. The cows were placed randomly in the DPD or placebo group. This was done per group that was dried off at the same time for every farm individually, so that every farm had 50% of the cows in the treatment group and 50% in the control group.
On t =13 days the DPD-containing capsules and the placebo capsules were administered.
The following hypothesis was tested and compared by statistical analysis: H0 is defined as there is no difference between the relative milk production before and after treatment between administering of the DPD bolus and placebo, and H1 is defined as there is a difference between the relative milk production before and after treatment between the DPD and placebo group.
The data were processed as follows: based on the data obtained from day 0, 1, 2, 3 . . . 12 the expected milk yields on day 13, 14, […] were calculated by linear regression for each cow. On t=13 the Placebo-capsule or DPD-containing capsule were administered into the rumen. The predicted data (as if no administration of a Placebo or DPD-containing capsule has taken place) and actual milk yields after administration were compared from t=13 days and the milk drop was calculated. This was performed for all the cows in the tests.
Hereafter, the average milk drop was calculated as the difference between the observed and the expected milk yield per day, which is calculated by comparing the expected milk yields that were obtained via linear regression, and the actual milk yields, obtained after treatment with a Placebo or DPD.
The Null Hypothesis is that the difference is zero. We calculate the P-values for these differences using a permutation test (5000 samples).
The Null Hypothesis was defined that that the difference of the 6 treatment cows and Placebo cows is zero. We calculate the P-values for these differences using a permutation test (5000 samples).

[1] = system: cows (Holstein Friesians); test: Treatment with DPD analogs (organosulfur compounds) and milk yield (Example 8); format: in vivo, cow; conditions: individual cows; dose per compound as listed in E284
Method: Study design. 36 cows (Holstein Friesians) from 2 farms were used. The feed of the cows was composed of TMR, including corn and grass silage, supplemented with soya and minerals. […] The cows were milked in a milk robot. […] The cows were milked twice a day. The cows were housed in free stables. […] Placebo treatment corresponded to administration of two gel capsules containing 180 ml water.
For this study dosages synthetic compounds (>96% purity) as indicated in table 17 were administered to cows. The objective of this study was to compare the activity of a corresponding dose of the compounds expressed in mol, based on the number of moles that is present in 80 ml di-n-propyl disulfide at 20° C. The number of moles was converted to ml or grams of the tested compounds. For this purpose, the molecular weight and specific density were used in the calculations. The compounds were formulated in the gel capsules as indicated in the previous examples.
Before the various dosages were administered, the milk yields were monitored for at least 5 days.

## CCCSSCCC [DPD, di-n-propyl disulfide]
cows; day 1 (before treatment)
  Milk production: 15.9 and 25.8
cows; day 2 (before treatment)
  Milk production: 15.3 and 31.7 and 5.9
cows; day 3 (before treatment)
  Milk production: 16 and 30.4 and −1.3
cows; day 4 (before treatment)
  Milk production: 15.6 and 29.9
cows; day 5 (before treatment)
  Milk production: 15.2 and 27.7
cows; day 6 (before treatment)
  Milk production: 14.5 and 28.4 and 23.6 and 24.5
cows; day 7 (before treatment)
  Milk production: 14.9 and 29.3 and 24 and 24.4
cows; day 8 (before treatment)
  Milk production: 13.4 and 28.1 and 22.4 and 24.6
cows; day 9 (before treatment)
  Milk production: 13.6 and 28.4 and 24.4 and 24.7
cows; day 10 (before treatment)
  Milk production: 13.8 and 27 and 23.4 and 25.3
cows; day 11 (before treatment)
  Milk production: 13.7 and 28.8 and 24.2 and 22.5
cows; day 12 (before treatment)
  Milk production: 12.9 and 27 and 21.7 and 22.2
cows; day 13 (day of treatment)
  Milk production: 12.9 and 27.7 and 23.2 and 20.4
cows; day 14
  Milk production: 12 and 26.4 and 22.2 and 22.3
cows; day 15
  Milk production: 11.4 and 23.7 and 23.1 and 20.5
cows; day 16
  Milk production: 11.4 and 21.5 and 23.7 and 24.4
cows; day 17
  Milk production: 12.8 and 25.4 and 23.1 and 22
cows; day 18
  Milk production: 10.9 and 27.5 and 23.2 and 14.8
cows; day 19
  Milk production: 11.6 and 25.7 and 22.9 and 9.8
cows; day 20
  Milk production: 10.2 and 24.8 and 22.3 and 24.3
cows; day 21
  Milk production: 9.9 and 23 and 21.3 and 25.8
cows; 40 ml DPD vs placebo
  effect on milk yield: not in a significant decrease on milk yield
cows; 40 ml DPD, day 14
  Mean Difference Treatment − Placebo: −0.3233 litres milk per day per cow
  Significant (effect on milk yield vs placebo): No
  average milk drop (Difference: observed minus expected milk yield): −0.226
cows; 40 ml DPD, day 15
  Mean Difference Treatment − Placebo: −0.873 litres milk per day per cow
  Significant (effect on milk yield vs placebo): No
  average milk drop (Difference: observed minus expected milk yield): −0.9122
cows; 40 ml DPD, day 16
  Mean Difference Treatment − Placebo: 1.599 litres milk per day per cow
  Significant (effect on milk yield vs placebo): No
  average milk drop (Difference: observed minus expected milk yield): 1.673
cows; 40 ml DPD, day 17
  Mean Difference Treatment − Placebo: −0.4365 litres milk per day per cow
  Significant (effect on milk yield vs placebo): No
  average milk drop (Difference: observed minus expected milk yield): 1.201
cows; 40 ml DPD, day 18
  Mean Difference Treatment − Placebo: −0.5789 litres milk per day per cow
  Significant (effect on milk yield vs placebo): No
  average milk drop (Difference: observed minus expected milk yield): 0.4719
cows; 40 ml DPD, day 19
  Mean Difference Treatment − Placebo: −0.9982 litres milk per day per cow
  Significant (effect on milk yield vs placebo): No
  average milk drop (Difference: observed minus expected milk yield): −0.2714
cows; 40 ml DPD, day 20
  Mean Difference Treatment − Placebo: −0.296 litres milk per day per cow
  Significant (effect on milk yield vs placebo): No
  average milk drop (Difference: observed minus expected milk yield): 1.657
cows; 40 ml DPD, day 21
  Mean Difference Treatment − Placebo: 0.1722 litres milk per day per cow
  Significant (effect on milk yield vs placebo): No
  average milk drop (Difference: observed minus expected milk yield): 1.713
cows; 80 ml DPD vs placebo
  effect on milk yield: significant decrease in milk yield
cows; 80 ml DPD, after the 3 days following treatment
  recovery of milk yield production: recovers after this period
cows; 80 ml DPD, day 13
  Mean Difference Treatment − Placebo: 0.2566 litres milk per day per cow
  Significance (effect on milk yield vs placebo): No
  average milk drop (difference): 0.3592
cows; 80 ml DPD, day 14
  Mean Difference Treatment − Placebo: −4.56 litres milk per day per cow
  Significance (effect on milk yield vs placebo): Yes
  average milk drop (difference): −5.726
cows; 80 ml DPD, day 15
  Mean Difference Treatment − Placebo: −6.729 litres milk per day per cow
  Significance (effect on milk yield vs placebo): Yes
  average milk drop (difference): −7.051
cows; 80 ml DPD, day 16
  Mean Difference Treatment − Placebo: −4.421 litres milk per day per cow
  Significance (effect on milk yield vs placebo): Yes
  average milk drop (difference): −3.891
cows; 80 ml DPD, day 17
  Mean Difference Treatment − Placebo: −0.4065 litres milk per day per cow
  Significance (effect on milk yield vs placebo): No
  average milk drop (difference): −1.8508
cows; 80 ml DPD, day 18
  Mean Difference Treatment − Placebo: 0.2326 litres milk per day per cow
  Significance (effect on milk yield vs placebo): No
  average milk drop (difference): −1.4323
cows; 80 ml DPD, day 19
  Mean Difference Treatment − Placebo: 0.9803 litres milk per day per cow
  Significance (effect on milk yield vs placebo): No
  average milk drop (difference): −0.1878
cows; 80 ml DPD, day 20
  Mean Difference Treatment − Placebo: 1.162 litres milk per day per cow
  Significance (effect on milk yield vs placebo): No
  average milk drop (difference): 0.262
cows; 80 ml DPD, next 3 days after treatment
  decrease of milk production compared to the placebo group (average): 6 litres per day per cow
cows; DPD, day 2 after treatment
  decreased milk production: 7.7 L/day
[1]
  Milk yield (kg) After 24 h: 8.5 kg
  Milk yield (kg) After 48 h: 7.4 kg
  Milk yield (kg) After 72 h: 15.6 kg
  Milk yield (kg) After 96 h: 17.7 kg
